Data from patent US10131664B2 (Celgene Quanticel Research, Inc., priority 2013, dated 2018).

Columns and labels:
full-length human LSD1 = full-length human LSD1 (Homo sapiens (Human), UniProt O60341); assay: In vitro enzyme inhibition assay LSD-1 (TR-FRET); format: biochemical; conditions: TR-FRET, 0.1 nM LSD1, 50 nM H3K4me1-biotin peptide, 2 μM FAD, pH7.3; read-out: LSD1 IC50
Procedure: This assay determines the ability of a test compound to inhibit LSD1 demethylase activity.
The enzymatic assay of LSD1 activity is based on Time Resolved-Fluorescence Resonance Energy Transfer (TR-FRET) detection.
The ability of the compounds disclosed herein to inhibit LSD1 activity was quantified and the respective IC50 value was determined. Table 5 provides the IC50 values of various substituted heterocyclic compounds disclosed herein.

THP-1 (AML) cells = assay: LSD1 CD11b cellular assay (flow cytometry); format: cell-based; conditions: Homo sapiens, 96 h; CD11b expression in THP-1 (AML) cells, flow cytometry, 4 days incubation; read-out: Cellular IC50
Method in brief: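 THP-1 AML cells treated with serially diluted compound (0.2% DMSO final) for 4 days at 37 °C, 5% CO2. CD11b expression measured by flow cytometry with DAPI staining; IC50 derived from percent CD11b-positive cells versus inhibitor concentration.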

Compound	IC50 (full-length human LSD1) [nM]	IC50 (THP-1 (AML) cells) [nM]
COc1nc(N2CCC(N)CC2)nc(-c2ccc(C#N)cc2)c1-c1ccc(N(C)C)nc1 [Example 155, 4-[2-(4-aminopiperidin-1-yl)-5-[6-(dimethylamino)pyridin-3-yl]-6-methoxypyrimidin-4-yl]benzonitrile]	< 100	< 100
COc1nc(N2CCC(N)CC2)nc(-c2ccc(C#N)cc2)c1-c1cnc(N(C)C)nc1 [Example 156, 4-[2-(4-aminopiperidin-1-yl)-5-[2-(dimethylamino)pyrimidin-5-yl]-6-methoxypyrimidin-4-yl]benzonitrile]	< 100	< 100
COc1nc(N2CCC(N)CC2)nc(-c2ccc(C#N)c(F)c2)c1-c1cnc2c(c1)nnn2C [Example 157, 4-[2-(4-aminopiperidin-1-yl)-6-methoxy-5-{3-methyl-3H-[1,2,3]triazolo[4,5-b]pyridin-6-yl}pyrimidin-4-yl]-2-fluorobenzonitrile]	< 100	< 100
COc1nc(N2CCC(N)CC2)nc(-c2ccc(C#N)cc2)c1-c1cnc2c(c1)nnn2C [Example 158, 4-[2-(4-aminopiperidin-1-yl)-6-methoxy-5-{3-methyl-3H-[1,2,3]triazolo[4,5-b]pyridin-6-yl}pyrimidin-4-yl]benzonitrile]	< 100	< 100
COc1nc(N2CCC(N)CC2)nc(-c2ccc(C#N)c(F)c2)c1-c1cnc2c(cnn2C)c1 [Example 159, 4-[2-(4-aminopiperidin-1-yl)-6-methoxy-5-{1-methyl-1H-pyrazolo[3,4-b]pyridin-5-yl}pyrimidin-4-yl]-2-fluorobenzonitrile]	< 100	< 100
CNc1nc(N2CCC(N)CC2)nc(-c2ccc(C#N)c(F)c2)c1-c1ccc2nn(C)cc2c1 [Example 160, 4-[2-(4-aminopiperidin-1-yl)-5-(2-methyl-2H-indazol-5-yl)-6-(methylamino)-pyrimidin-4-yl]-2-fluorobenzonitrile]	< 100	< 100
CNc1nc(N2CCC(N)CC2)nc(-c2ccc(C#N)c(F)c2)c1-c1ccc2c(cnn2C)c1 [Example 161, 4-[2-(4-aminopiperidin-1-yl)-5-(l-methyl-1H-indazol-5-yl)-6-(methylamino)pyrimidin-4-yl]-2-fluorobenzonitrile]	< 100	< 100
CNc1nc(N2CCCNCC2)nc(-c2ccc(C#N)c(F)c2)c1-c1ccc2nn(C)cc2c1 [Example 162, 4-[2-(1,4-diazepan-1-yl)-5-(2-methyl-2H-indazol-5-yl)-6-(methylamino)pyrimidin-4-yl]-2-fluorobenzonitrile]	< 100	< 100
CNc1nc(N2CCC(N)CC2)nc(-c2ccc(C#N)cc2)c1-c1ccc2nn(C)cc2c1 [Example 163, 4-[2-(4-aminopiperidin-1-yl)-5-(2-methyl-2H-indazol-5-yl)-6-(methylamino)-pyrimidin-4-yl]-benzonitrile]	< 100	< 100
CNc1nc(N2CCC(N)CC2)nc(-c2ccc(C#N)cc2)c1-c1ccc2c(cnn2C)c1 [Example 164, 4-[2-(4-aminopiperidin-1-yl)-5-(1-methyl-1H-indazol-5-yl)-6-(methylamino)pyrimidin-4-yl]benzonitrile]	< 100	< 100
CNc1nc(N2CCC(N)CC2)nc(-c2ccc(C#N)c(F)c2)c1-c1ccc2c(c1)nnn2C [Example 165, 4-[2-(4-aminopiperidin-1-yl)-5-(1-methyl-1H-1,2,3-benzotriazol-5-yl)-6-(methylamino)pyrimidin-4-yl]-2-fluorobenzonitrile]	< 100	< 100
CCNc1nc(N2CCC(N)CC2)nc(-c2ccc(C#N)c(F)c2)c1-c1ccc2nn(C)cc2c1 [Example 166, 4-[2-(4-aminopiperidin-1-yl)-6-(ethylamino)-5-(2-methyl-2H-indazol-5-yl)-pyrimidin-4-yl]-2-fluorobenzonitrile]	< 100	< 100
CNc1nc(N2CCC(N)CC2)nc(-c2ccc(C#N)c(F)c2)c1-c1cnn(CC(F)(F)F)c1 [Example 167, 4-[2-(4-aminopiperidin-1-yl)-6-(methylamino)-5-[1-(2,2,2-trifluoroethyl)-1H-pyrazol-4-yl]pyrimidin-4-yl]-2-fluorobenzonitrile]	< 100	< 100
CNc1nc(N2CCC(N)CC2)nc(-c2ccc(C#N)c(F)c2)c1-c1cnc(N(C)C)nc1 [Example 168, 4-[2-(4-aminopiperidin-1-yl)-5-[2-(dimethylamino)pyrimidin-5-yl]-6-(methylamino)pyrimidin-4-yl]-2-fluorobenzonitrile]	< 100	< 100
CNc1nc(N2CCC(N)CC2)nc(-c2ccc(C#N)c(F)c2)c1-c1ccc(N(C)C)nc1 [Example 169, 4-[2-(4-aminopiperidin-1-yl)-5-[6-(dimethylamino)pyridin-3-yl]-6-(methylamino)pyrimidin-4-yl]-2-fluorobenzonitrile]	< 100	< 100
CNc1nc(N2CCC(N)CC2)nc(-c2ccc(C#N)cc2)c1-c1ccc2c(c1)nnn2C [Example 170]	< 100	< 100
CNc1nc(N2CCC(N)CC2)nc(-c2ccc(C#N)c(F)c2)c1-c1cnc2c(c1)nnn2C [Example 171, 4-[2-(4-aminopiperidin-1-yl)-5-{3-methyl-3H-[1,2,3]triazolo[4,5-b]pyridin-6-yl}-6-(methylamino)pyrimidin-4-yl]-2-fluorobenzonitrile]	< 100	< 100
CNc1nc(N2CCCNCC2)nc(-c2ccc(C#N)cc2)c1-c1ccc2nn(C)cc2c1 [Example 172, 4-[2-(1,4-diazepan-1-yl)-5-(2-methyl-2H-indazol-5-yl)-6-(methylamino)pyrimidin-4-yl]benzonitrile]	< 100	< 100
CNc1nc(N2CCC(N(C)C)CC2)nc(-c2ccc(C#N)cc2)c1-c1ccc2nn(C)cc2c1 [Example 173, 4-{2-[4-(dimethylamino)piperidin-1-yl]-5-(2-methyl-2H-indazol-5-yl)-6-(methylamino)pyrimidin-4-yl}benzonitrile]	< 100	< 100

Results, then the molecule that gave them:

IC50 (full-length human LSD1) [nM]	IC50 (THP-1 (AML) cells) [nM]	Compound
< 100	100 to 1000	Cn1cc2cc(-c3cnc(N4CC5C(N)C5C4)nc3-c3ccc(C#N)c(F)c3)ccc2n1 (stereo not drawn) [Example 144, 4-[2-(6-amino-3-azabicyclo[3.1.0]hexan-3-yl)-5-(2-methylindazol-5-yl)pyrimidin-4-yl]-2-fluorobenzonitrile]
< 100	< 100	Cn1ncc2cc(-c3cnc(N4CCC(N)CC4)nc3-c3ccc(C#N)c(F)c3)cnc21 [Example 145, 4-[2-(4-aminopiperidin-1-yl)-5-(1-methylpyrazolo[3,4-b]pyridin-5-yl)pyrimidin-4-yl]-2-fluorobenzonitrile]
< 100	< 100	N#Cc1ccc(-c2nc(N3CCC4CNCC4CC3)ncc2-c2ccc3scnc3c2)cc1 (stereo not drawn) [Example 146, 4-[2-(2,3,3a,4,5,7,8,8a-octahydro-1H-pyrrolo[3,4-d]azepin-6-yl)-5-(1,3-benzothiazol-5-yl)pyrimidin-4-yl]benzonitrile]
< 100	< 100	COc1nc(N2CCC(N)CC2)nc(-c2ccc(C#N)c(F)c2)c1-c1ccc2nn(C)cc2c1 [Example 147, 4-[2-(4-aminopiperidin-1-yl)-6-methoxy-5-(2-methyl-2H-indazol-5-yl)pyrimidin-4-yl]-2-fluorobenzonitrile]
< 100	< 100	COc1nc(N2CCCNCC2)nc(-c2ccc(C#N)c(F)c2)c1-c1ccc2nn(C)cc2c1 [Example 148, 4-[2-(1,4-diazepan-1-yl)-6-methoxy-5-(2-methyl-2H-indazol-5-yl)pyrimidin-4-yl]-2-fluorobenzonitrile]
< 100	< 100	COc1nc(N2CCCC(N)CC2)nc(-c2ccc(C#N)c(F)c2)c1-c1ccc2nn(C)cc2c1 (stereo not drawn) [Example 149, 4-[2-(4-aminoazepan-1-yl)-6-methoxy-5-(2-methyl-2H-indazol-5-yl)pyrimidin-4-yl]-2-fluorobenzonitrile]
< 100	< 100	COc1nc(N2CCC(N)CC2)nc(-c2ccc(C#N)c(F)c2)c1-c1ccc2cn(C)nc2c1 [Example 150, 4-[2-(4-aminopiperidin-1-yl)-6-methoxy-5-(2-methyl-2H-indazol-6-yl)pyrimidin-4-yl]-2-fluorobenzonitrile]
< 100	< 100	COc1nc(N2CCC(N)CC2)nc(-c2ccc(C#N)c(F)c2)c1-c1ccc2c(c1)nnn2C [Example 151, 4-[2-(4-aminopiperidin-1-yl)-6-methoxy-5-(1-methyl-1H-1,2,3-benzotriazol-5-yl)pyrimidin-4-yl]-2-fluorobenzonitrile]
< 100	< 100	COc1nc(N2CCC(N)CC2)nc(-c2ccc(C#N)cc2)c1-c1ccc2nn(C)cc2c1 [Example 152, 4-[2-(4-aminopiperidin-1-yl)-6-methoxy-5-(2-methyl-2H-indazol-5-yl)pyrimidin-4-yl]benzonitrile]
< 100	< 100	COc1nc(N2CCC(N)CC2)nc(-c2ccc(C#N)cc2)c1-c1cnn(CC(F)(F)F)c1 [Example 153, 4-[2-(4-aminopiperidin-1-yl)-6-methoxy-5-[1-(2,2,2-trifluoroethyl)-1H-pyrazol-4-yl]pyrimidin-4-yl]benzonitrile]
< 100	< 100	COc1nc(N2CCC(N)CC2)nc(-c2ccc(C#N)cc2)c1-c1ccc2c(c1)nnn2C [Example 154, 4-[2-(4-aminopiperidin-1-yl)-6-methoxy-5-(1-methyl-1H-1,2,3-benzotriazol-5-yl)pyrimidin-4-yl]benzonitrile]
